Data as given in patent publication US8900644B2, “Oral care compositions containing compounds from magnolia and hops extracts” (Colgate-Palmolive Company, priority 2004, dated 2014).

Legend:
Experiment in all cases: in vitro test Minimal Inhibitory Concentration (MIC)
Assay type in all cases: cell-based
S. mutans = test system: S. mutans
Text: (§1) For example, the oral compositions of the present invention are bactericidal against representative oral bacteria, such as S. mutans, F. nucleatum, V. parvula, A. naeslundii, and P. gingivitis as measured by the in vitro test Minimal Inhibitory Concentration (MIC). The oral composition of the present invention is applied to the oral surfaces in the oral cavity, and promotes overall oral health, including preventing plaque formation, caries formation, calculus formation, halitosis, gingivitis, and periodontitis, for example. For example, in an embodiment of the present invention, where an oral care composition comprises an orally acceptable delivery carrier and a safe and effective amount of the combination of an extract of hops and an extract of magnolia, it has been observed that the antibacterial activity is highly efficacious against both gram-positive and gram-negative bacteria.
(§2) It should be noted that any plant from the Magnoliaceae family is suitable for the present invention and may be used in alternate embodiments. Preferably such that the extract comprises an antimicrobially effective concentration of a compound selected from the group consisting of magnolol, honokiol, tetrahydromagnolol, tetrahydrohonokiol, and mixtures thereof.

F. nucleatum = test system: F. nucleatum
Text: as §1, §2

P. gingivitis = test system: P. gingivitis
Text: as §1, §2

V. parvula = test system: V. parvula
Text: as §1, §2

A. naeslundii = test system: A. naeslundii
Text: as §1, §2

Measured: bactericidal properties in Minimal Inhibitory Concentration (MIC) test

C=CCc1ccc(O)c(-c2ccc(O)c(CC=C)c2)c1 [honokiol]
bactericidal: S. mutans | F. nucleatum | P. gingivitis | V. parvula | A. naeslundii

CCCc1ccc(O)c(-c2ccc(O)c(CCC)c2)c1 [tetrahydrohonokiol]
bactericidal: S. mutans | F. nucleatum | P. gingivitis | V. parvula | A. naeslundii

CCCc1ccc(O)c(-c2cc(CCC)ccc2O)c1 [tetrahydromagnolol]
bactericidal: S. mutans | F. nucleatum | P. gingivitis | V. parvula | A. naeslundii

C=CCc1ccc(O)c(-c2cc(CC=C)ccc2O)c1 [magnolol]
bactericidal: S. mutans | F. nucleatum | P. gingivitis | V. parvula | A. naeslundii
